In this test the target is T1, Progesterone receptor (Rattus norvegicus, UniProt Q63449).
T1 sequence (Q63449 whole entry): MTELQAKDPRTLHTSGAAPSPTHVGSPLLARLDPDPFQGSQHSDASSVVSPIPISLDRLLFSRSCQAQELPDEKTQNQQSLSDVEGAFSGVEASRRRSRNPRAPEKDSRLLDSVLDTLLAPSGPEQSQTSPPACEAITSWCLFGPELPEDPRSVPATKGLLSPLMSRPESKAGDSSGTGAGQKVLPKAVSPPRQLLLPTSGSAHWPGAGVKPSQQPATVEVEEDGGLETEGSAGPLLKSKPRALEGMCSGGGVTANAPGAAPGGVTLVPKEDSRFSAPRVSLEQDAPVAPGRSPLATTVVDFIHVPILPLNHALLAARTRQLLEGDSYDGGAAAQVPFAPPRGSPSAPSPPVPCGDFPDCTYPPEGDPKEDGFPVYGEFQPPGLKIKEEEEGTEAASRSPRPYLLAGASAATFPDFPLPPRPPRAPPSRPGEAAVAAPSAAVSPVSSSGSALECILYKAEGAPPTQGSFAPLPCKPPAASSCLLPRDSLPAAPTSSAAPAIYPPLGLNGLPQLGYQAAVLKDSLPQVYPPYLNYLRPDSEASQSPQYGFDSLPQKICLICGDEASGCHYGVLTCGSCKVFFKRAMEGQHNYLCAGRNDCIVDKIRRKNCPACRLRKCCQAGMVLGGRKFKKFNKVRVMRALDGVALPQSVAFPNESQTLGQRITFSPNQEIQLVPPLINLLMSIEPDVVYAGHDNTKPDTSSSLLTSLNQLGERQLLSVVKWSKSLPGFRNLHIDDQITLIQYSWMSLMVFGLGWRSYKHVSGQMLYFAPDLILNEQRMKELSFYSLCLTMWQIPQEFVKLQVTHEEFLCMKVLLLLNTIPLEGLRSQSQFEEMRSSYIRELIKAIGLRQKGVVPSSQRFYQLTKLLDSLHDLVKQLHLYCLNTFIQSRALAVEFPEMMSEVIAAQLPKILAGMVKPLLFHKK
Briefly: Inhibitory progestational activity on oral administration in uterine C3 model.

One may read the IC50 as the concentration at which inhibition is half-maximal. Regarding `N#Cc1cccc(-c2ccc3c(c2)C2(CCCCC2)C(=S)N3)c1`, half-maximal inhibition (IC50) required 942 nM. Under `N#Cc1ccc(-c2ccc3c(c2)C2(CCCCC2)C(=S)N3)s1` stands 92.5 nM; under `S=C1Nc2ccc(-c3cccc(Cl)c3)cc2C12CCCCC2`, 1120 nM; under `N#Cc1cc(F)cc(-c2ccc3c(c2)C2(CCCCC2)C(S)=N3)c1` [3-fluoro-5-(2'-thioxo-1',2'-dihydrospiro[cyclohexane-1,3'-indol]-5'-yl)benzonitrile], 7.43 nM. Compound `CC(=O)O[C@]1(C(C)=O)CC[C@H]2[C@@H]3C[C@H](C)C4=CC(=O)CC[C@]4(C)[C@H]3CC[C@@]21C` [17-Acetoxy-6alpha-methylprogesterone] registered an IC50 of 67.3 nM.

(Values after BindingDB's records for doi:10.1016/s0960-894x(03)00129-x (Wyeth Research, 2003).)
